# Test results as given in patent US20080207617A1, “Quinoline Derivatives and Quinazoline Derivatives Inhibiting Autophosphrylation of Flt3 and Medicinal Compositions Containing the Same” (KIRIN BEER KABUSHIKI KAISHA, priority 2002, published 2008).
# Structures can show the parent of a compound that is named as a salt. Where two headings read alike, the source gives them in different places.
# Key:
# MOLM13 [1] = experiment: Cell growth inhibitory activities on cultured human leukemia cells MOLM-13 (WST-1); type: cell-based; conditions: Homo sapiens, MOLM-13, 72 h, 3 days culture
# MOLM13 [2] = experiment: Tumor growth inhibitory activities in nude mice xenograft model inoculated with human leukemia cells MOLM13; type: in vivo; conditions: Mus musculus, MOLM-13, po, 50 mg/kg orally once a day, read-out: TGIR (%) (measurement date)
# Experimental: Pharmacological Test Example 5
# Tumor Growth Inhibitory Activities in Nude Mice Xenograft Model Inoculated with Human Leukemia Cells
# Human leukemia cells MOLM13 (subdivided from Hayashibara Biochemical Laboratories, Inc.) were subcutaneously transplanted into nude mice. […] The test compound suspended or dissolved in 0.5% methylcellulose was orally administered at a dose of 0.1 ml per 10 g body weight once a day for 9 days. For the control group, only vehicle was administered.
# The tumor growth inhibition rate (TGIR) was calculated as follows:
# The tumor growth inhibition rate (TGIR)=(1−TX/CX)×100
# wherein CX represents the volume of tumor at day X for the control group when the tumor volume at the day of the start of the administration (day 1) was presumed to be 1; and TX represents the volume of tumor at day X for test compound administration groups.
# MOLM13 [3] = experiment: Cell growth inhibitory activity using MTT method (MOLM13); type: cell-based, human; conditions: Homo sapiens, MOLM-13, 72 h, MOLM13 cells
# Experimental: Pharmacological Test Example 3
# Measurement of Cell Growth Inhibitory Activity Using MTT Method
# Human leukemia cell line MOLM13 (subdivided from Hayashibara Biochemical Laboratories, Inc.) was cultured in an RPMI medium containing 10% fetal calf serum (purchased from Asahi Techno Glass Corporation) within a 5% carbon dioxide incubator until the cell density reached 50 to 90% of the maximum cell density. These cells were seeded into wells, containing an RPMI medium containing 10% fetal calf serum, in a 96-well flat bottom plate in an amount of […] per well. The amount of the solution of the medium in each well was brought to 100 μl, and a test compound was added thereto to 500 ng, 100 ng, 20 ng, and 4 ng per ml. After culture within an incubator for 72 hr, 10 μl of a 5 mg/ml MTT (3-(4,5-dimethylthiazol-2-yl)-2,5-diphenyl tetrazolium bromide) solution (purchased from SIGMA) was added to the medium, and a reaction was allowed to proceed for 4 hr. Thereafter, 100 μl of a 0.04 N hydrochloric acid-isopropanol solution was added to completely dissolve the resultant MTT formazan crystal. After the dissolution, absorbance at 550 nm was measured using 620 nm as a reference wavelength with a microplate reader (DIGISCAN) (It is regarded that, in the MTT method, the viable cell count is reflected, and linearity is observed in a cell count per well range of 5×10^5 to 2×10^2 cells). After 72 hr, the absorbance of only the medium free from cells was subtracted from the absorbance of the well without the addition of the test compound to determine a value which was presumed to be 100%. On the other hand, the absorbance with the addition of the compound was expressed in terms of % growth.
# MV4-11 = experiment: Cell growth inhibitory test MV4-11 (WST-1); type: cell-based, human; conditions: Homo sapiens, MV4-11, 72 h, MV4-11 cells, 3 days culture
# Outline: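 MV4-11 leukemia cells (3×10^3/well, DMEM + 10% FCS) were cultured 3 days with compound in DMSO at 5% CO2. Growth read by WST-1 absorbance at 450 nm (ref 650 nm), normalized to untreated (100%) and cell-free (0%) wells; IC50 from multiple concentrations.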
# FLT3 = biological target: T1, FLT3 (Homo sapiens, UniProt P36888); experiment: Inhibitory activity against FLT3 autophosphorylation using ELISA method; type: cell-based; conditions: MV4-11 cells, 1 hr with compound, read-out: IC50 of FLT3-phosphorylation
# T1 sequence (P36888 with tags, fused parts or gaps INS600HVDFREYEYD): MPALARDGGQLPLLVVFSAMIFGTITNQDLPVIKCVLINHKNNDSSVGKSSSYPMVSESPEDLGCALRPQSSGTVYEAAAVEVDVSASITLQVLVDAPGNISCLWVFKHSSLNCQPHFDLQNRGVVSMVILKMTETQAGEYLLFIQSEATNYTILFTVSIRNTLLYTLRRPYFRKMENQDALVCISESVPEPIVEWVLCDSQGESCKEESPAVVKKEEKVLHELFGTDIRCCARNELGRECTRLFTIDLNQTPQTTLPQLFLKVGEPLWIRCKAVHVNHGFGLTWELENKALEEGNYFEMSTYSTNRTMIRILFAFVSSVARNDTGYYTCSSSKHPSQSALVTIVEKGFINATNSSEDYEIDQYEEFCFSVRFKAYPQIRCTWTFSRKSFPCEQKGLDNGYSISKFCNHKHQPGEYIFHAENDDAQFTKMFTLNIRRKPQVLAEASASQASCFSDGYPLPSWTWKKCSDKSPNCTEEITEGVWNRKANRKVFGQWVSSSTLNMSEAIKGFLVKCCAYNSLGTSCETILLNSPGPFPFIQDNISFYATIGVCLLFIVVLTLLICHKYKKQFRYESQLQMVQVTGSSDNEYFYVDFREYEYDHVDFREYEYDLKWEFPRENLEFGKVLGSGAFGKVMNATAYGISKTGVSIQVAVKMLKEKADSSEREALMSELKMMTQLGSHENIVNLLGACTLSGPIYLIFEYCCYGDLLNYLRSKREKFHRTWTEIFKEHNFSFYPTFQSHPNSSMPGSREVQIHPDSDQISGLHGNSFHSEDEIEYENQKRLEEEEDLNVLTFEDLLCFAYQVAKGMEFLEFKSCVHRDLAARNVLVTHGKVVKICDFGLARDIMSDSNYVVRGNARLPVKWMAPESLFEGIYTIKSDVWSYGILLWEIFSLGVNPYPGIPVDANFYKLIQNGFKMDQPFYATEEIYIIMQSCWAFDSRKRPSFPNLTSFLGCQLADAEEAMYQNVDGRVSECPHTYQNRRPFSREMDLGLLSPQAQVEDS
# Experimental: Pharmacological Test Example 1
# Measurement of Inhibitory Activity Against FLT3 Autophosphorylation Using ELISA Method
# Human leukemia cells MV4-11 (ATCC number: CRL-9591) were cultured in an IMDM medium containing 10% fetal calf serum (purchased from SIGMA) within a 5% carbon dioxide incubator until 50 to 90% confluent. The harvested cells were seeded into 96-wells, plates, containing an IMDM medium containing 0.1% fetal calf serum, in a 96-well multiscreen plate in an amount of 5.0×10^5 per well, a solution of the test compound in dimethyl sulfoxide was added to each well, and the cultivation was continued at 37° C. for one hr. The medium was removed, followed by washing with phosphate buffered saline. A lysis buffer (60 μl) (20 mM HEPES (pH 7.4), 150 mM NaCl, 0.2% Triton X-100, 10% glycerol, 5 mM sodium orthovanadylate, 5 mM disodium ethylenediaminetetraacetate, and 2 mM Na4P2O7) was then added thereto. The mixture was shaken at 4° C. for 2 hr to prepare a cell extracts.
# Separately, phosphate buffered saline (50 μl, pH 7.4) containing 5 μg/ml of anti-phospho-tyrosine antibody (PY20; purchased from Transduction Laboratories) was added to a 96-well microplate for ELISA (Maxisorp; purchased from NUNC), followed by standing at 4° C. overnight to form a solid phase on the wells. After washing of the plate, 250 μl of a blocking solution was added, followed by standing at room temperature for 3 hr to perform blocking. After washing, the whole quantity of the cell extract was transferred to the wells, and the plate was then allowed to stand at 4° C. overnight. After washing, an anti-FLT3 antibody (Flt3/Flk2 (C-20), purchased from Santa Cruz Biotechnology) was allowed to react at room temperature for 2 hr, and, after washing, a peroxidase-labeled anti-rabbit Ig antibody (purchased from Amersham) was allowed to react at room temperature for one hr. After washing, a chromophoric substrate for peroxidase (purchased from Sumitomo Bakelite Co., Ltd.) was added thereto to initiate a reaction. After a suitable level of color development, a reaction termination solution was added to stop the reaction, and the absorbance at 450 nm was measured with a microplate reader. The FLT3-phosphorylation activity for each well was determined by presuming the absorbance without the addition of the medicament to be 100% FLT3-phosphorylation activity and the absorbance with the addition of a large excess of a positive control (Compound 1, 10 μM) to be 0% FLT3-phosphorylation activity. The concentration of the test compound was varied on several levels, the FLT3-phosphorylation inhibitory activity was determined for each case, and the concentration of the test compound necessary for inhibiting 50% of FLT3-phosphorylation (IC50) was calculated.
SMILES,IC50 (MOLM13 [1]),"inhibition in vivo at 50 mg/kg (MOLM13 [2]; 240 h, day 10)",IC50 (MOLM13 [3]),IC50 (MV4-11),IC50 (FLT3),"inhibition in vivo at 50 mg/kg (MOLM13 [2]; 216 h, day 9)"
"COc1cc2nccc(Oc3ccc(NC(=O)NC4CC(C)CC(C)(C)C4)cc3F)c2cc1OC (stereo not shown) [Compound 15, 1-[4-(6,7-Dimethoxy-quinolin-4-yloxy)-3-fluoro-phenyl]-3-(3,3,5-trimethyl-cyclohexyl)-urea]",22 nM,89.4%,9.5 nM,11 nM,,
"COc1cc2nccc(Oc3ccc(NC(=O)NC4CCCC(C)(C)C4)cc3F)c2cc1OC (stereo not shown) [Compound 14, 1-[4-(6,7-Dimethoxy-quinolin-4-yloxy)-3-fluoro-phenyl]-3-(3,3-dimethyl-cyclohexyl)-urea]",3 nM,96.1%,5.13 nM,2 nM,,
"COc1cc2c(Oc3ccc(NC(=O)NCCC(C)(C)C)cc3)ccnc2cc1OCCN1CCCCC1 [Compound 40, 1-{4-[6-Methoxy-7-(2-piperidin-1-yl-ethoxy)-quinolin-4-yloxy]-phenyl}-3-(3,3-dimethyl-butyl)-urea hydrochloride]",2 nM,,,1 nM,93 nM,
"COc1cc2nccc(Oc3ccc(NC(=O)NCCC(C)(C)C)cc3C)c2cc1OC [Compound 3, 1-[4-(6,7-Dimethoxy-quinolin-4-yloxy)-3-methyl-phenyl]-3-(3,3-dimethyl-butyl)-urea]",3 nM,,,2 nM,7 nM,
"COc1cc2nccc(Oc3ccc(NC(=O)NC4CC(C)CC(C)(C)C4)cc3Cl)c2cc1OC (stereo not shown) [Compound 13, 1-[3-Chloro-4-(6,7-dimethoxy-quinolin-4-yloxy)-phenyl]-3-(3,3,5-trimethyl-cyclohexyl)-urea]",21 nM,84.8%,3.87 nM,18 nM,,
"COc1cc2c(Oc3ccc(NC(=O)NCCC(C)(C)C)cc3)ccnc2cc1OCCCN1CCN(C)CC1 [Compound 75, 1-(3,3-Dimethyl-butyl)-3-(4-{6-methoxy-7-[3-(4-methyl-piperazin-1-yl)-propoxy]-quinolin-4-yloxy}-phenyl)-urea hydrochloride]",< 1 nM,,,< 1 nM,,94.1%
"COc1cc2nccc(Oc3ccc(NC(=O)NC4CCCC(C)(C)C4)cc3Cl)c2cc1OC (stereo not shown) [Compound 12, 1-[3-Chloro-4-(6,7-dimethoxy-quinolin-4-yloxy)-phenyl]-3-(3,3-dimethyl-cyclohexyl)-urea]",6 nM,93.7%,5.37 nM,5 nM,,
